Laboratory results: ChEMBL document CHEMBL4813932, “Terpenoid Constituents of Perovskia artemisioides Aerial Parts with Inhibitory Effects on Bacterial Biofilm Growth” (2021)

Tests used:
Assay in all cases: microbe, parasite or virus in culture
Type in all cases: functional
Escherichia coli [1] = conditions: DSM 8579, time 48 hrs
Description: Antibiofilm activity against Escherichia coli DSM 8579 assessed as inhibition of bacterial metabolism within the biofilm at 40 ug/ml measured after 48 hrs by MTT assay relative to control

Staphylococcus aureus [2] = conditions: ATCC 25923, time 48 hrs
Description: Antibiofilm activity against Staphylococcus aureus ATCC 25923 assessed as inhibition of biofilm formation at 4 ug/ml measured after 48 hrs by crystal violet staining based assay relative to control

Listeria monocytogenes [3] = conditions: ATCC 7644, time 48 hrs
Description: Antibiofilm activity against Listeria monocytogenes ATCC 7644 assessed as inhibition of biofilm formation at 4 ug/ml measured after 48 hrs by crystal violet staining based assay relative to control

Acinetobacter baumannii [4] = conditions: ATCC 19606 = CIP 70.34 = JCM 6841, time 48 hrs
Description: Antibiofilm activity against Acinetobacter baumannii ATCC 19606 assessed as inhibition of bacterial metabolism within the biofilm at 4 ug/ml measured after 48 hrs by MTT assay relative to control

Escherichia coli [5] = conditions: DSM 8579, time 48 hrs; remark: listed apart in the source
Description: Antibiofilm activity against Escherichia coli DSM 8579 assessed as inhibition of biofilm formation at 80 ug/ml measured after 48 hrs by crystal violet staining based assay relative to control

Listeria monocytogenes [6] = conditions: ATCC 7644, time 48 hrs; remark: listed apart in the source
Description: Antibiofilm activity against Listeria monocytogenes ATCC 7644 assessed as inhibition of biofilm formation at 8 ug/ml measured after 48 hrs by crystal violet staining based assay relative to control

Escherichia coli [7] = conditions: DSM 8579, time 48 hrs; remark: listed apart in the source
Description: Antibiofilm activity against Escherichia coli DSM 8579 assessed as inhibition of biofilm formation at 40 ug/ml measured after 48 hrs by crystal violet staining based assay relative to control

[8] = test system: Pectobacterium carotovorum; conditions: ATCC 15713, time 48 hrs
Description: Antibiofilm activity against Pectobacterium carotovorum ATCC 15713 assessed as inhibition of bacterial metabolism within the biofilm at 8 ug/ml measured after 48 hrs by MTT assay relative to control

Pseudomonas aeruginosa [9] = conditions: ATCC 50071, time 48 hrs
Description: Antibiofilm activity against Pseudomonas aeruginosa ATCC 50071 assessed as inhibition of biofilm formation at 8 ug/ml measured after 48 hrs by crystal violet staining based assay relative to control

Pseudomonas aeruginosa [10] = conditions: ATCC 50071, time 48 hrs; remark: listed apart in the source
Description: Antibiofilm activity against Pseudomonas aeruginosa ATCC 50071 assessed as inhibition of bacterial metabolism within the biofilm at 4 ug/ml measured after 48 hrs by MTT assay relative to control

Escherichia coli [11] = conditions: DSM 8579, time 48 hrs; remark: listed apart in the source
Description: Antibiofilm activity against Escherichia coli DSM 8579 assessed as inhibition of bacterial metabolism within the biofilm at 80 ug/ml measured after 48 hrs by MTT assay relative to control

Acinetobacter baumannii [12] = conditions: ATCC 19606 = CIP 70.34 = JCM 6841, time 48 hrs; remark: listed apart in the source
Description: Antibiofilm activity against Acinetobacter baumannii ATCC 19606 assessed as inhibition of biofilm formation at 8 ug/ml measured after 48 hrs by crystal violet staining based assay relative to control

Staphylococcus aureus [13] = conditions: ATCC 25923, time 48 hrs; remark: listed apart in the source
Description: Antibiofilm activity against Staphylococcus aureus ATCC 25923 assessed as inhibition of bacterial metabolism within the biofilm at 4 ug/ml measured after 48 hrs by MTT assay relative to control

Acinetobacter baumannii [14] = conditions: ATCC 19606 = CIP 70.34 = JCM 6841, time 48 hrs; remark: listed apart in the source
Description: Antibiofilm activity against Acinetobacter baumannii ATCC 19606 assessed as inhibition of biofilm formation at 4 ug/ml measured after 48 hrs by crystal violet staining based assay relative to control

Listeria monocytogenes [15] = conditions: ATCC 7644, time 48 hrs; remark: listed apart in the source
Description: Antibiofilm activity against Listeria monocytogenes ATCC 7644 assessed as inhibition of bacterial metabolism within the biofilm at 4 ug/ml measured after 48 hrs by MTT assay relative to control

Pseudomonas aeruginosa [16] = conditions: ATCC 50071, time 48 hrs; remark: listed apart in the source
Description: Antibiofilm activity against Pseudomonas aeruginosa ATCC 50071 assessed as inhibition of biofilm formation at 4 ug/ml measured after 48 hrs by crystal violet staining based assay relative to control

Staphylococcus aureus [17] = conditions: ATCC 25923, time 48 hrs; remark: listed apart in the source
Description: Antibiofilm activity against Staphylococcus aureus ATCC 25923 assessed as inhibition of bacterial metabolism within the biofilm at 8 ug/ml measured after 48 hrs by MTT assay relative to control

[18] = test system: Pectobacterium carotovorum; conditions: ATCC 15713, time 48 hrs; remark: listed apart in the source
Description: Antibiofilm activity against Pectobacterium carotovorum ATCC 15713 assessed as inhibition of biofilm formation at 4 ug/ml measured after 48 hrs by crystal violet staining based assay relative to control

Staphylococcus aureus [19] = conditions: ATCC 25923, time 48 hrs; remark: listed apart in the source
Description: Antibiofilm activity against Staphylococcus aureus ATCC 25923 assessed as inhibition of biofilm formation at 8 ug/ml measured after 48 hrs by crystal violet staining based assay relative to control

[20] = test system: Pectobacterium carotovorum; conditions: ATCC 15713, time 48 hrs; remark: listed apart in the source
Description: Antibiofilm activity against Pectobacterium carotovorum ATCC 15713 assessed as inhibition of biofilm formation at 8 ug/ml measured after 48 hrs by crystal violet staining based assay relative to control

Acinetobacter baumannii [21] = conditions: ATCC 19606 = CIP 70.34 = JCM 6841, time 48 hrs; remark: listed apart in the source
Description: Antibiofilm activity against Acinetobacter baumannii ATCC 19606 assessed as inhibition of bacterial metabolism within the biofilm at 8 ug/ml measured after 48 hrs by MTT assay relative to control

Listeria monocytogenes [22] = conditions: ATCC 7644, time 48 hrs; remark: listed apart in the source
Description: Antibiofilm activity against Listeria monocytogenes ATCC 7644 assessed as inhibition of bacterial metabolism within the biofilm at 8 ug/ml measured after 48 hrs by MTT assay relative to control

Pseudomonas aeruginosa [23] = conditions: ATCC 50071, time 48 hrs; remark: listed apart in the source
Description: Antibiofilm activity against Pseudomonas aeruginosa ATCC 50071 assessed as inhibition of bacterial metabolism within the biofilm at 8 ug/ml measured after 48 hrs by MTT assay relative to control

[24] = test system: Pectobacterium carotovorum; conditions: ATCC 15713, time 48 hrs; remark: listed apart in the source
Description: Antibiofilm activity against Pectobacterium carotovorum ATCC 15713 assessed as inhibition of bacterial metabolism within the biofilm at 4 ug/ml measured after 48 hrs by MTT assay relative to control

Compound | inhibition at 40 µg/mL (Escherichia coli [1]) | inhibition at 4 µg/mL (Staphylococcus aureus [2]) | inhibition at 4 µg/mL (Listeria monocytogenes [3]) | inhibition at 4 µg/mL (Acinetobacter baumannii [4]) | inhibition at 80 µg/mL (Escherichia coli [5]) | inhibition at 8 µg/mL (Listeria monocytogenes [6]) | inhibition at 40 µg/mL (Escherichia coli [7]) | inhibition at 8 µg/mL [8] | inhibition at 8 µg/mL (Pseudomonas aeruginosa [9]) | inhibition at 4 µg/mL (Pseudomonas aeruginosa [10]) | inhibition at 80 µg/mL (Escherichia coli [11]) | inhibition at 8 µg/mL (Acinetobacter baumannii [12]) | inhibition at 4 µg/mL (Staphylococcus aureus [13]) | inhibition at 4 µg/mL (Acinetobacter baumannii [14]) | inhibition at 4 µg/mL (Listeria monocytogenes [15]) | inhibition at 4 µg/mL (Pseudomonas aeruginosa [16]) | inhibition at 8 µg/mL (Staphylococcus aureus [17]) | inhibition at 8 µg/mL (Staphylococcus aureus [19]) | inhibition at 8 µg/mL (Listeria monocytogenes [22]) | inhibition at 8 µg/mL (Pseudomonas aeruginosa [23]) | further results
CC(C)c1cc2c(c(O)c1O)[C@@]13CCCC(C)(C)[C@@H]1C[C@@H]2OC3=O [CARNOSOL] | 0% | 95.9% | 17.2% | 7.1% | 0% | 46.7% | 0% | 69.1% | 88.5% | 0% | 0% | 47.2% | 68.2% | 43.2% | 27.6% | 39% | 84.8% | 100% | 40.4% | 5.4% | inhibition at 4 µg/mL [18]: 49.1%; inhibition at 8 µg/mL [20]: 100%; inhibition at 8 µg/mL (Acinetobacter baumannii [21]): 49%; inhibition at 4 µg/mL [24]: 35.8%
CC(C)c1cc2c(c(O)c1O)[C@@]13CCCC(C)(C)[C@@H]1[C@@H](O)[C@@H]2OC3=O [ISOROSMANOL] | 42.2% | 0% | 25% | 2.5% | 53% | 63.9% | 42.9% | 62.8% | 80.5% | 0% | 52.1% | 43.9% | 0% | 13.2% | 16.2% | 75.4% | 17% | 56.2% | 25.2% | 14.7% | inhibition at 4 µg/mL [18]: 66.3%; inhibition at 8 µg/mL [20]: 66.9%; inhibition at 8 µg/mL (Acinetobacter baumannii [21]): 48.5%; inhibition at 4 µg/mL [24]: 56.4%
COc1cc2oc(-c3ccc(O)cc3)cc(=O)c2c(O)c1OC [CIRSIMARITIN] | 44.2% | 0% | 54% | – | 65.3% | 65.2% | 37.7% | – | 83.7% | 0% | 50% | – | 0% | – | 26.9% | 47.9% | 52.6% | 6.6% | 39% | 40.2% | –
CC1(C)C[C@H]2[C@H]1CC[C@@]1(C)C[C@@]2(O)CC[C@@H]1O | 0% | 0% | 14.8% | – | 23.9% | 38.7% | 0% | – | 4% | 0% | 18.2% | – | 0% | – | 0% | 0% | 0% | 0% | 23.9% | 4% | –
CC(C)c1cc2c(c(O)c1O)[C@@]13CCCC(C)(C)[C@@H]1[C@H](OC3=O)[C@@H]2O [EPIROSMANOL] | 0% | 68.4% | 0% | 8.9% | 11.3% | 63.4% | 0% | 56.3% | 74.8% | 0% | 0% | 56.9% | 0% | 26.3% | 24.7% | 70.7% | 23.6% | 81.7% | 55.6% | 9.2% | inhibition at 4 µg/mL [18]: 33.6%; inhibition at 8 µg/mL [20]: 53.8%; inhibition at 8 µg/mL (Acinetobacter baumannii [21]): 11.1%; inhibition at 4 µg/mL [24]: 32.5%
